Experimental data: PubChem BioAssay (NCI)
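Following 48 hours of exposure in 96-well plates, responses at five concentrations were used to interpolate endpoints linearly. TGI: total growth inhibition.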

Key:
Assay in all cases: inhibition of tumour cell growth, NCI panel, 48 h
HOP-62 NSCLC = test system: HOP-62 NSCLC
HCT-15 colon = test system: HCT-15 colon
PC-3 prostate = test system: PC-3 prostate
RPMI-8226 leukemia = test system: RPMI-8226 leukemia
LOX IMVI melanoma = test system: LOX IMVI melanoma
SF-268 CNS = test system: SF-268 CNS
CAKI-1 renal = test system: CAKI-1 renal
HCT-116 colon = test system: HCT-116 colon
NCI-H522 lung = test system: NCI-H522 lung
MCF7 breast = test system: MCF7 breast
KM12 colon = test system: KM12 colon
SF-295 CNS = test system: SF-295 CNS
SK-OV-3 ovarian = test system: SK-OV-3 ovarian
OVCAR-3 ovarian = test system: OVCAR-3 ovarian
SN12C renal = test system: SN12C renal
SK-MEL-2 melanoma = test system: SK-MEL-2 melanoma
UACC-257 melanoma = test system: UACC-257 melanoma
A549 NSCLC = test system: A549 NSCLC
IGROV1 ovarian = test system: IGROV1 ovarian
SF-539 CNS = test system: SF-539 CNS
U251 CNS = test system: U251 CNS
HL-60(TB) leukemia = test system: HL-60(TB) leukemia
MOLT-4 leukemia = test system: MOLT-4 leukemia
COLO 205 colon = test system: COLO 205 colon
HCC-2998 colon = test system: HCC-2998 colon
NCI/ADR-RES ovarian = test system: NCI/ADR-RES ovarian
K-562 leukemia = test system: K-562 leukemia
SK-MEL-5 melanoma = test system: SK-MEL-5 melanoma
BT-549 breast = test system: BT-549 breast
786-0 renal = test system: 786-0 renal
DU-145 prostate = test system: DU-145 prostate
MALME-3M melanoma = test system: MALME-3M melanoma
NCI-H226 lung = test system: NCI-H226 lung
OVCAR-5 ovarian = test system: OVCAR-5 ovarian
HT29 colon = test system: HT29 colon
MDA-MB-435 = test system: MDA-MB-435
OVCAR-4 ovarian = test system: OVCAR-4 ovarian
RXF 393 renal = test system: RXF 393 renal
HOP-92 NSCLC = test system: HOP-92 NSCLC
TK-10 renal = test system: TK-10 renal
SR leukemia = test system: SR leukemia
HS 578T breast = test system: HS 578T breast
MDA-N = test system: MDA-N
UO-31 renal = test system: UO-31 renal
MDA-MB-231 breast = test system: MDA-MB-231 breast
T-47D breast = test system: T-47D breast
ACHN renal = test system: ACHN renal
M14 melanoma = test system: M14 melanoma
UACC-62 melanoma = test system: UACC-62 melanoma
NCI-H460 lung = test system: NCI-H460 lung
SK-MEL-28 melanoma = test system: SK-MEL-28 melanoma
CCRF-CEM leukemia = test system: CCRF-CEM leukemia
NCI-H23 lung = test system: NCI-H23 lung
SNB-19 CNS = test system: SNB-19 CNS
SNB-75 CNS = test system: SNB-75 CNS
OVCAR-8 ovarian = test system: OVCAR-8 ovarian
EKVX NSCLC = test system: EKVX NSCLC
SW-620 colon = test system: SW-620 colon
A498 renal = test system: A498 renal

## Nc1ccc(S(=O)(=O)Nc2nc3ccccc3nc2N2CCCCCC2)cc1
HOP-62 NSCLC
  TGI: 52.6 µM
HCT-15 colon
  TGI: 95.5 µM
PC-3 prostate
  TGI: > 100 µM
RPMI-8226 leukemia
  TGI: 42.5 µM
LOX IMVI melanoma
  TGI: 33.5 µM
SF-268 CNS
  TGI: > 100 µM
CAKI-1 renal
  TGI: 82.7 µM
HCT-116 colon
  TGI: 33.2 µM
NCI-H522 lung
  TGI: > 100 µM
MCF7 breast
  TGI: > 100 µM
KM12 colon
  TGI: > 100 µM
SF-295 CNS
  TGI: 57.3 µM
SK-OV-3 ovarian
  TGI: > 100 µM
OVCAR-3 ovarian
  TGI: 40.2 µM
SN12C renal
  TGI: 44.9 µM
SK-MEL-2 melanoma
  TGI: 40.8 µM
UACC-257 melanoma
  TGI: > 100 µM
A549 NSCLC
  TGI: > 100 µM
IGROV1 ovarian
  TGI: > 100 µM
SF-539 CNS
  TGI: 35.7 µM
U251 CNS
  TGI: 46.4 µM
HL-60(TB) leukemia
  TGI: 52 µM
MOLT-4 leukemia
  TGI: 55.3 µM
COLO 205 colon
  TGI: 33.4 µM
HCC-2998 colon
  TGI: 33.4 µM
NCI/ADR-RES ovarian
  TGI: > 100 µM
K-562 leukemia
  TGI: 52 µM
SK-MEL-5 melanoma
  TGI: 30.1 µM
BT-549 breast
  TGI: 28.2 µM
786-0 renal
  TGI: > 100 µM
DU-145 prostate
  TGI: > 100 µM
MALME-3M melanoma
  TGI: 85.9 µM
NCI-H226 lung
  TGI: > 100 µM
OVCAR-5 ovarian
  TGI: > 100 µM
HT29 colon
  TGI: > 100 µM
MDA-MB-435
  TGI: 41.1 µM
OVCAR-4 ovarian
  TGI: 50.9 µM
RXF 393 renal
  TGI: 35.5 µM
HOP-92 NSCLC
  TGI: 63.6 µM
TK-10 renal
  TGI: > 100 µM
SR leukemia
  TGI: > 100 µM
HS 578T breast
  TGI: > 100 µM
MDA-N
  TGI: > 100 µM
UO-31 renal
  TGI: 40.8 µM
MDA-MB-231 breast
  TGI: > 100 µM
T-47D breast
  TGI: > 100 µM
ACHN renal
  TGI: > 100 µM
M14 melanoma
  TGI: > 100 µM
UACC-62 melanoma
  TGI: 39.8 µM
NCI-H460 lung
  TGI: 61.2 µM
SK-MEL-28 melanoma
  TGI: 39.4 µM
CCRF-CEM leukemia
  TGI: > 100 µM
NCI-H23 lung
  TGI: 47.7 µM
SNB-19 CNS
  TGI: > 100 µM
SNB-75 CNS
  TGI: > 100 µM
OVCAR-8 ovarian
  TGI: > 100 µM
EKVX NSCLC
  TGI: > 100 µM
SW-620 colon
  TGI: 54.1 µM

## O=C(c1cccs1)N1CCN(C(=O)c2cccs2)C1=S
HOP-62 NSCLC
  TGI: 18.8 µM
HCT-15 colon
  TGI: 17.7 µM
PC-3 prostate
  TGI: 15.6 µM
RPMI-8226 leukemia
  TGI: > 19.7 µM
LOX IMVI melanoma
  TGI: 10.8 µM
SF-268 CNS
  TGI: 20 µM
CAKI-1 renal
  TGI: 15.3 µM
HCT-116 colon
  TGI: 21.7 µM
NCI-H522 lung
  TGI: 35.8 µM
MCF7 breast
  TGI: 14.8 µM
KM12 colon
  TGI: 12.4 µM
SF-295 CNS
  TGI: 30.5 µM
SK-OV-3 ovarian
  TGI: 28.9 µM
OVCAR-3 ovarian
  TGI: 10.7 µM
SN12C renal
  TGI: 10.1 µM
SK-MEL-2 melanoma
  TGI: 28.3 µM
UACC-257 melanoma
  TGI: 22.9 µM
A549 NSCLC
  TGI: 19.8 µM
IGROV1 ovarian
  TGI: 19.6 µM
SF-539 CNS
  TGI: 4.84 µM
U251 CNS
  TGI: 18.2 µM
HL-60(TB) leukemia
  TGI: 5.2 µM
MOLT-4 leukemia
  TGI: 8.18 µM
COLO 205 colon
  TGI: 22.4 µM
HCC-2998 colon
  TGI: 22 µM
NCI/ADR-RES ovarian
  TGI: 59 µM
K-562 leukemia
  TGI: > 45.2 µM
SK-MEL-5 melanoma
  TGI: 18.2 µM
BT-549 breast
  TGI: 14.9 µM
786-0 renal
  TGI: 12.4 µM
DU-145 prostate
  TGI: 7.7 µM
MALME-3M melanoma
  TGI: 28.7 µM
NCI-H226 lung
  TGI: 34.7 µM
OVCAR-5 ovarian
  TGI: 30.3 µM
HT29 colon
  TGI: 21 µM
MDA-MB-435
  TGI: 10.2 µM
OVCAR-4 ovarian
  TGI: 32.3 µM
RXF 393 renal
  TGI: 10.5 µM
HOP-92 NSCLC
  TGI: 20.7 µM
TK-10 renal
  TGI: 19 µM
SR leukemia
  TGI: > 100 µM
HS 578T breast
  TGI: > 100 µM
MDA-N
  TGI: 14.8 µM
UO-31 renal
  TGI: 8.5 µM
MDA-MB-231 breast
  TGI: 18.1 µM
A498 renal
  TGI: 32.1 µM
T-47D breast
  TGI: 23.8 µM
ACHN renal
  TGI: 20.5 µM
M14 melanoma
  TGI: 19 µM
UACC-62 melanoma
  TGI: 16.6 µM
NCI-H460 lung
  TGI: 19.1 µM
SK-MEL-28 melanoma
  TGI: 19.2 µM
CCRF-CEM leukemia
  TGI: 6.87 µM
NCI-H23 lung
  TGI: 32.1 µM
SNB-19 CNS
  TGI: 32.7 µM
SNB-75 CNS
  TGI: 11.7 µM
OVCAR-8 ovarian
  TGI: 21.4 µM
EKVX NSCLC
  TGI: 27.8 µM
SW-620 colon
  TGI: 24.6 µM

## COC(=O)C1C(O)C(C)C(O)C(C)C=C(C)C2=C3C(=C(C)C(=O)c4c(O)c(c(C)c(OC(C)=O)c43)NC(=O)C(C)=C/C=C\C(C)C(O)C(C)C1O)OCO2 (stereo not given)
HOP-62 NSCLC
  TGI: > 100 µM
HCT-15 colon
  TGI: 65.9 µM
PC-3 prostate
  TGI: > 100 µM
RPMI-8226 leukemia
  TGI: 55.3 µM
LOX IMVI melanoma
  TGI: 43 µM
SF-268 CNS
  TGI: 44.9 µM
HCT-116 colon
  TGI: > 100 µM
NCI-H522 lung
  TGI: 39.4 µM
MCF7 breast
  TGI: 58.7 µM
KM12 colon
  TGI: 99.6 µM
SF-295 CNS
  TGI: > 100 µM
SK-OV-3 ovarian
  TGI: > 100 µM
OVCAR-3 ovarian
  TGI: 53 µM
SN12C renal
  TGI: > 100 µM
SK-MEL-2 melanoma
  TGI: 74.2 µM
UACC-257 melanoma
  TGI: 37.4 µM
A549 NSCLC
  TGI: > 100 µM
IGROV1 ovarian
  TGI: > 100 µM
SF-539 CNS
  TGI: > 100 µM
U251 CNS
  TGI: > 100 µM
HL-60(TB) leukemia
  TGI: 41.6 µM
MOLT-4 leukemia
  TGI: 51.4 µM
COLO 205 colon
  TGI: 63.6 µM
HCC-2998 colon
  TGI: > 100 µM
NCI/ADR-RES ovarian
  TGI: > 100 µM
K-562 leukemia
  TGI: 47.5 µM
SK-MEL-5 melanoma
  TGI: 39.4 µM
BT-549 breast
  TGI: 39.2 µM
786-0 renal
  TGI: > 100 µM
DU-145 prostate
  TGI: > 100 µM
MALME-3M melanoma
  TGI: 38.5 µM
NCI-H226 lung
  TGI: > 100 µM
OVCAR-5 ovarian
  TGI: > 100 µM
HT29 colon
  TGI: 70.2 µM
MDA-MB-435
  TGI: 30.4 µM
OVCAR-4 ovarian
  TGI: > 100 µM
RXF 393 renal
  TGI: 89.8 µM
HOP-92 NSCLC
  TGI: > 100 µM
TK-10 renal
  TGI: > 100 µM
SR leukemia
  TGI: 47.6 µM
HS 578T breast
  TGI: > 100 µM
MDA-N
  TGI: 31.8 µM
UO-31 renal
  TGI: > 100 µM
MDA-MB-231 breast
  TGI: 77.6 µM
A498 renal
  TGI: 99.4 µM
T-47D breast
  TGI: > 100 µM
ACHN renal
  TGI: > 100 µM
M14 melanoma
  TGI: 68.9 µM
UACC-62 melanoma
  TGI: 74.5 µM
NCI-H460 lung
  TGI: > 100 µM
SK-MEL-28 melanoma
  TGI: 47.3 µM
CCRF-CEM leukemia
  TGI: 67 µM
NCI-H23 lung
  TGI: 63 µM
SNB-19 CNS
  TGI: > 100 µM
SNB-75 CNS
  TGI: 92.9 µM
OVCAR-8 ovarian
  TGI: > 100 µM
EKVX NSCLC
  TGI: > 100 µM
SW-620 colon
  TGI: 56.4 µM
